Nine compounds from patent publication US12503432B2, “Ionizable lipids for nucleic acid delivery” (Global Life Sciences Solutions Canada ULC, priority 2019, dated 2025) can be followed below.

Molecules are shown by their SMILES.

Data set [1] can be described thus: TNS fluorescence assay: experimental pKa of formulated lipid nanoparticles. The data set is classed as physicochemical. As to conditions: experimental surface pKa of empty LNP, cationic lipid/DSPC/cholesterol/PEG-lipid (50/10/38.5/1.5). The protocol: The pKa of each cationic lipid was determined in lipid nanoparticles using an assay based on fluorescence of 6-(p-Toluidino)-2-naphthalenesulfonic acid sodium salt (TNS, Sigma Aldrich), which is a fluorescent probe for the conformational state of proteins^5. Empty lipid nanoparticles comprising of cationic lipid/DSPC/cholesterol/PEG-lipid (50/10/38.5/1.5) in distilled water at a concentration of 3.125 mM total lipid are formulated using NanoAssemblr® Spark™, and were then was characterized for LNP quality on the Zetasizer™ using a 30× dilution with 1×PBS in the low volume cuvette. Lipid nanoparticles were further diluted 4× using distilled water to 0.781 mM total lipid. TNS was prepared as a 25 μM stock solution in distilled water. Then 6.4 μL of diluted LNP samples of 0.781 mM total lipid were mixed with 10 μL of diluted TNS to a final volume of 250 μL with buffer containing 10 mM HEPES, 10 mM MES, 10 mM NH4OAc and 130 mM NaCl where the pH ranged from 3 to 9 in 0.5 pH increments.
Samples were mixed thoroughly, and the fluorescence intensity was measured at room temperature in a BioTek™ Synergy™ H1 Hybrid Multi-Mode Monochromator™ Fluorescence Microplate Reader using excitation and emission wavelengths of 321 nm and 445 nm respectively. A sigmoidal best fit analysis was applied to the fluorescence data using GraphPad Prism™ software, and the pKa was measured as the pH at half-maximal fluorescence intensity.

Data set [2] in a line: LNP characterization: size and PDI by dynamic light scattering, mRNA encapsulation efficiency by RiboGreen assay. The data set is classed as physicochemical. In a few lines: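 Lipid nanoparticles made by microfluidic mixing of mRNA or plasmid in 100 mM sodium acetate with ethanolic lipid mix (Ignite: 3:1 flow ratio, 12 ml/min; Spark: N/P 4, 6 or 10), diluted in PBS pH 7.4. Z-average size and PDI by backscatter DLS (173°, 633 nm, 10 runs × 2 cycles). Encapsulation by RiboGreen assay.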

Where [3] appears, read: 5-moU EPO encoded LNPs, IL:DSPC:cholesterol:DMG-PEG (50:10:38.5:1.5), N/P 6.
Where [4] appears, read: Table 4 LNPs, payload and lipid mix not stated.
The mark [5] stands for this setting: OVA encoded LNPs, payload WT OVA, LM02, N/P 8.

The pKa is the negative logarithm of the acid dissociation constant. On to `CCCCCCCCC1CC1CCCCCCCCOCC(COC(=O)CC1CCC(OC(=O)CCCN(C)C)C1CC1CC1CC)OCCCCCCCCC1CC1CCCCCCCC` (stereo not drawn) [PNI 545], for which the pKa in data set [1] was 5.91. In data set [2] (setting [3]), the “Diameter (Z. ave, nm)” value came to 59.0 nm; the “Encapsulation Efficiency (%)” value came out at 98.6%; the “Polydispersity Index (PDI)” value is 0.04. Further, in data set [2] (setting [4]), the “Diameter (Z. ave, nm)” value worked out at 63.9 nm; the “Encapsulation Efficiency (%)” value is reported as 98.4%; the “Polydispersity Index (PDI)” value was found to be 0.07.
As for `CCCCCCCCC1CC1CCCCCCCCOCC(COC(=O)CC1CCC(OC(=O)CCN(C)C)C1CC1CC1CC)OCCCCCCCCC1CC1CCCCCCCC` (stereo not drawn) [PNI 546], the pKa in data set [1] is 4.84. Further, in data set [2] (setting [3]), the “Diameter (Z. ave, nm)” value amounted to 56.9 nm; the “Encapsulation Efficiency (%)” value worked out at 96.3%; the “Polydispersity Index (PDI)” value is recorded as 0.09. In data set [2] (setting [4]), the “Diameter (Z. ave, nm)” value is 64.0 nm; the “Encapsulation Efficiency (%)” value was 96.3%; the “Polydispersity Index (PDI)” value was found to be 0.03.
As for `CC/C=C\CC1C(CC(=O)OC(CCCCCCCCC2CC2CCCCCCCC)CCCCCCCCC2CC2CCCCCCCC)CCC1OC(=O)CCN(C)C` (stereo not drawn) [PNI 549], in data set [1], the pKa was 5.27. In addition, in data set [2] (setting [3]), the “Diameter (Z. ave, nm)” value came to 62.5 nm; the “Encapsulation Efficiency (%)” value amounted to 97.4%; the “Polydispersity Index (PDI)” value was 0.06. Besides, in data set [2] (setting [4]), the “Diameter (Z. ave, nm)” value came to 71.2 nm; the “Encapsulation Efficiency (%)” value is given as 96.4%; the “Polydispersity Index (PDI)” value was 0.05.
In the case of `CC/C=C\CC1C(CC(=O)OCCC(CCCCCCCC)OC(=O)C(CCCCCC)CCCCCCCC)CCC1OC(=O)CCN(C)C` (stereo not drawn) [PNI 554], the pKa in data set [1] turned out to be 5.52. In data set [2] (setting [3]), the “Diameter (Z. ave, nm)” value was 55.4 nm; the “Encapsulation Efficiency (%)” value is given as 97.5%; the “Polydispersity Index (PDI)” value was 0.09. In data set [2] (setting [4]), the “Diameter (Z. ave, nm)” value amounted to 55.1 nm; the “Encapsulation Efficiency (%)” value is on record as 96.6%; the “Polydispersity Index (PDI)” value is recorded as 0.06.
Turning to `CC/C=C\CC1C(CC(=O)OCC(COCCCCCCCC/C=C\C/C=C\CCCCC)OCCCCCCCC/C=C\C/C=C\CCCCC)CCC1OC(=O)CC1CCN(C)C1` (stereo not drawn) [PNI 557], the pKa in data set [1] is 6.7. For the same compound, in data set [2] (setting [3]), the “Diameter (Z. ave, nm)” value stood at 71.8 nm; the “Encapsulation Efficiency (%)” value turned out to be 98.9%; the “Polydispersity Index (PDI)” value is 0.08. Also, in data set [2] (setting [4]), the “Diameter (Z. ave, nm)” value was 95.4 nm; the “Encapsulation Efficiency (%)” value is 98.7%; the “Polydispersity Index (PDI)” value stood at 0.02.
For `CC/C=C\CC1C(CC(=O)OCC(COCCCCCCCC/C=C\C/C=C\CCCCC)OCCCCCCCC/C=C\C/C=C\CCCCC)CCC1OC(=O)CCCN1CCCC1` (stereo not drawn) [PNI 558], the pKa in data set [1] came out at 6.28. Also, in data set [2] (setting [3]), the “Diameter (Z. ave, nm)” value was 73.2 nm; the “Encapsulation Efficiency (%)” value worked out at 98.9%; the “Polydispersity Index (PDI)” value was 0.03. Also, in data set [2] (setting [4]), the “Diameter (Z. ave, nm)” value came to 91.2 nm; the “Encapsulation Efficiency (%)” value is 98.7%; the “Polydispersity Index (PDI)” value is reported as 0.07.
Turning to `CC/C=C\CC1C(CC(=O)OCC(COCCCCCCCC/C=C\C/C=C\CCCCC)OCCCCCCCC/C=C\C/C=C\CCCCC)CCC1OC(=O)CC1CCCCN1C` (stereo not drawn) [PNI 559], in data set [1], the pKa worked out at 5.16. For the same compound, in data set [2] (setting [3]), the “Diameter (Z. ave, nm)” value was 64.6 nm; the “Encapsulation Efficiency (%)” value stood at 97.3%; the “Polydispersity Index (PDI)” value is listed as 0.03. Further, in data set [2] (setting [4]), the “Diameter (Z. ave, nm)” value came out at 59.4 nm; the “Encapsulation Efficiency (%)” value is on record as 95.9%; the “Polydispersity Index (PDI)” value is recorded as 0.07.
Turning to `CC/C=C\CC1C(CC(=O)OC(CCCCCCCCC2CC2CCCCCCCC)CCCCCCCCC2CC2CCCCCCCC)CCC1OC(=O)C1(C)CCN(C)CC1` (stereo not drawn) [PNI 560], the pKa in data set [1] is 5.7. Further, in data set [2] (setting [3]), the “Diameter (Z. ave, nm)” value was 63.1 nm; the “Encapsulation Efficiency (%)” value worked out at 98.7%; the “Polydispersity Index (PDI)” value was 0.06. Also, in data set [2] (setting [5]), the “Diameter (Z. ave, nm)” value is 76.7 nm; the “Encapsulation Efficiency (%)” value stood at 97.7%; the “Polydispersity Index (PDI)” value stood at 0.05. Besides, in data set [2] (setting [4]), the “Diameter (Z. ave, nm)” value is 60.5 nm; the “Encapsulation Efficiency (%)” value is on record as 98.4%; the “Polydispersity Index (PDI)” value is given as 0.06.
As for `CC/C=C\CC1C(CC(=O)OCCC(CCCCCCCC)OC(=O)C(CCCCCC)CCCCCCCC)CCC1OC(=O)C1(C)CCN(C)CC1` (stereo not drawn) [PNI 565], in data set [1], the pKa was 5.99. In data set [2] (setting [3]), the “Diameter (Z. ave, nm)” value is listed as 60.8 nm; the “Encapsulation Efficiency (%)” value is on record as 97.9%; the “Polydispersity Index (PDI)” value was 0.03. Moreover, in data set [2] (setting [4]), the “Diameter (Z. ave, nm)” value is on record as 69.9 nm; the “Encapsulation Efficiency (%)” value is recorded as 97.4%; the “Polydispersity Index (PDI)” value is listed as 0.03.
